According to PubChem BioAssay AID1963873 (Molecular Pharmacology Branch, DTP, NCI, 2024):

Tested on: 276233-004-R-J1-PDC KRAS spheroids with HUVEC/MSC, viability
Assay: Anticancer human tumor 276233-004-R-J1-PDC patient-derived colon adenocarcinoma cell line growth inhibition [KRAS2]
Details: for IC50: curve of first compound; for viability, T/C: stronger effect = lower value
Outline: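 KRAS-mutant tumor cells were grown as spheroids with HUVEC endothelial cells and human MSCs as stroma. Targeted agents were tested alone and with KRAS pathway inhibitors. Doses started at or near clinical Cmax, or 10 microM, descending half-log.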
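Further: cells exposed to agents for seven days before viability read.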
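Wherever viability, T/C is given: 100% = DMSO vehicle control wells and lower values mean fewer viable cells.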

Cn1ncnc1[C@H]1c2n[nH]c(=O)c3cc(F)cc(c23)N[C@@H]1c1ccc(F)cc1 + C=CC(=O)N1CCN(c2nc(=O)n(-c3c(C)ccnc3C(C)C)c3nc(-c4c(O)cccc4F)c(F)cc23)C(C)C1
IC50 (second compound 0.1 µM): > 100 nM | IC50 (second compound 0.316 µM): > 100 nM | IC50 (second compound 1 µM): > 100 nM | IC50 (second compound 3.16 µM): > 100 nM | IC50 (second compound 10 µM): > 100 nM | viability, T/C (second compound 0.1 µM, first compound 0.000316 µM): 89.7% | viability, T/C (second compound 0.1 µM, first compound 0.001 µM): 98% | viability, T/C (second compound 0.1 µM, first compound 0.00316 µM): 94.8% | viability, T/C (second compound 0.1 µM, first compound 0.01 µM): 99.5% | viability, T/C (second compound 0.1 µM, first compound 0.0316 µM): 95.1% | viability, T/C (second compound 0.1 µM, first compound 0.1 µM): 91.7% | viability, T/C (second compound 0.316 µM, first compound 0.000316 µM): 99.6% | viability, T/C (second compound 0.316 µM, first compound 0.001 µM): 111% | viability, T/C (second compound 0.316 µM, first compound 0.00316 µM): 101% | viability, T/C (second compound 0.316 µM, first compound 0.01 µM): 100% | viability, T/C (second compound 0.316 µM, first compound 0.0316 µM): 94.4% | viability, T/C (second compound 0.316 µM, first compound 0.1 µM): 92% | viability, T/C (second compound 1 µM, first compound 0.000316 µM): 98.6% | viability, T/C (second compound 1 µM, first compound 0.001 µM): 121% | viability, T/C (second compound 1 µM, first compound 0.00316 µM): 138% | viability, T/C (second compound 1 µM, first compound 0.01 µM): 93.9% | viability, T/C (second compound 1 µM, first compound 0.0316 µM): 95.5% | viability, T/C (second compound 1 µM, first compound 0.1 µM): 94.9% | viability, T/C (second compound 3.16 µM, first compound 0.000316 µM): 98.4% | viability, T/C (second compound 3.16 µM, first compound 0.001 µM): 116% | viability, T/C (second compound 3.16 µM, first compound 0.00316 µM): 117% | viability, T/C (second compound 3.16 µM, first compound 0.01 µM): 92.5% | viability, T/C (second compound 3.16 µM, first compound 0.0316 µM): 97.8% | viability, T/C (second compound 3.16 µM, first compound 0.1 µM): 133% | viability, T/C (second compound 10 µM, first compound 0.000316 µM): 88.2% | viability, T/C (second compound 10 µM, first compound 0.001 µM): 91.3% | viability, T/C (second compound 10 µM, first compound 0.00316 µM): 114% | viability, T/C (second compound 10 µM, first compound 0.01 µM): 85.7% | viability, T/C (second compound 10 µM, first compound 0.0316 µM): 83.4% | viability, T/C (second compound 10 µM, first compound 0.1 µM): 88.4%
